The results in this text go back to US9845327B2, “Treatment of proteinopathies” (THE GENERAL HOSPITAL CORPORATION, priority 2011, dated 2017).

Data set [1] deals with α-synuclein. Put plainly: α-synuclein solubility and oligomers (sequential extraction/western blot, native SEC, immunostaining) in primary cortical neurons. Type of data set: cell-based. On the procedure:
(§1) As discussed above, the increased α-synuclein levels and toxicity that occur with GCase polypeptide depletion may result from generalized lysosomal inhibition or may be due to alterations in GlcCer lipid metabolism. To distinguish between these two possibilities, in this Example, the lysosomal protein degradation was inhibited with leupeptin in WT α-synuclein-expressing neurons and the neurotoxicity was assessed. […] Thus, despite similar effects on the total α-synuclein levels by leupeptin or GCase polypeptide KD, only GCase polypeptide KD increased the steady-state levels of soluble HMW α-synuclein. In this Example, sequential extraction followed by SDS-PAGE/Coomassie brilliant blue (CBB) staining was used to determine the effect of leupeptin treatment on the solubility of total cellular proteins.
(§2) Cells were harvested in Triton X-100 lysis buffer. The extracts were centrifuged at 100,000×g for 30 min. The pellets were extracted in 2% SDS buffer. Similar procedures were utilized for mouse and human brain tissues, using 20 volumes of Triton X-100 lysis buffer. Samples were loaded onto SDS-PAGE gels or subjected to native SEC followed by western blot analysis as described below (Mazzulli et al., J. Neurosci. 26:10068, 2006).
Infected cortical cells (8,000,000 cells/10 cm plate) were harvested in Triton X-100 lysis buffer and 100,000×g Triton X-100 soluble lysate was loaded onto a Superdex 200 HR 10/300 column (GE healthcare) as described previously (Mazzulli et al., J. Neurosci. 26:10068, 2006). Quantification of α-synuclein oligomers has been described in detail previously (Tsika et al., J. Neurosci. 30: 3409, 2010).
Cortical cells grown on poly-D-lysine coated coverslips in 12 well clusters were washed very briefly in warm PBS followed by rapid fixation in PBS-buffered 4% paraformaldehyde (w/v) for 15 min. Cells were incubated with PBS containing 0.3% (v/v) Triton X-100 overnight at 4° C., then blocked in 2% (w/v) bovine serum albumin (BSA) (Sigma-Aldrich, # A-7906) and 10% normal goat serum (Jackson Immunoresearch Laboratories, #005-000-121) in PBS-Triton X-100 for 1 hr. Primary antibodies were diluted into blocking buffer (see above for dilutions), incubated overnight at 4° C., and washed extensively in PBS-Triton X-100. […] Coverslips were mounted onto glass slides with 10 μl of 4,6-diamidino-2-phenylindole dihydrochloride (DAPI)-containing Fluoromount G (Southern Biotech, #0100-20) and visualized with a fluorescence microscope. For quantification of α-synuclein and LC3 immunostaining, pixels from equal-time exposed images were quantified using Adobe Photoshop software CS2 (Adobe Systems), and normalized to DAPI.
For orientation: Immunoblotting shows a protein as a band on a membrane.

The test system of data set [2] is primary cortical neurons. Put plainly: Proteolysis of long-lived proteins by radioactive pulse-chase in primary cortical neurons. Conditions: added to GCase polypeptide KD. The format is cell-based, mouse. Here is the method:
In this Example, a test was conducted to determine whether GCase polypeptide KD affects a lysosomal degradation pathway. In this test, neurons were treated with the well-established lysosomal inhibitors ammonium chloride (NH4Cl) and leupeptin.
Proteolysis of long-lived proteins was determined by radioactive pulse-chase using ^3H-leucine. This procedure was performed as described previously (Kaushik et al. Methods Enzymol. 452: 297, 2009). Briefly, cortical cells were grown in 24 well clusters seeded at 33000 cells/well and infected at moi 3 with scrb or GCase polypeptide shRNA expressing lentiviral vectors. On dpi 4, ^3H-leucine (PerkinElmer, # NET460A001 MC, final 5 μCi/ml) was added in standard neurobasal medium containing B27 for 2 days to trace label proteins. […] Samples were centrifuged at 20,000×g for 20 min, 4° C., and the radioactivity was measured in 5 ml of scintillation cocktail using a Beckman LS 1701 liquid scintillation counter (Beckman Instruments). Precipitated protein pellets were extracted in 200 μl of Na deoxycholate, 0.1 M NaOH, and radioactivity was determined. Percent proteolysis was calculated as described in detail elsewhere (Kaushik et al. Methods Enzymol. 452: 297, 2009). […]

The test system of a further data set is LC3-II. Put plainly: LC3-II western blot in primary cortical neurons. The format is cell-based, mouse. The conditions noted are these: leupeptin compared with GCase polypeptide KD. Here is the method: as §1
Most materials for SDS-PAGE were obtained from Invitrogen (NuPAGE system). […] Blots were blocked in Odyssey blocking buffer (Li-Cor biosciences) containing 0.05% Tween, or 5% non-fat dry milk in TBS-T 0.2%, followed by incubation with primary antibodies (see above for dilutions), and detected with anti-mouse or -rabbit IgG conjugated to IRDye 680 or 800 (1:10,000, Li-Cor biosciences). […] Any nonspecific bands detected were not included in densitometric analyses. […]

The test system of data set [3] is α-synuclein/LAMP1 colocalized puncta. The experiment in a line: Immunostaining of α-synuclein and LAMP1, condensed nuclei count in primary neurons. Type of data set: cell-based. On the procedure:
Next in this Example, the effect of GlcCer on α-synuclein fibril formation was assessed under acidic conditions (pH 5.0, 37° C.), to simulate a lysosome-like environment in vitro because the neuronal culture data had indicated increased colocalization of α-synuclein with LAMP1 upon GCase polypeptide KD (FIGS. 5H and 5I). […] An increased frequency of condensed nuclei in WT α-synuclein/GC-depleted cells, compared to WT α-synuclein/scrb shRNA cells (panel H), was consistent with a decline in neuronal viability. […] The α-synuclein detected in P2 was in the form of a T-sol 18 kDa monomer (panel I, left), as well as T-insoluble monomer and multimers (panel I, right).
Cortical cells grown on poly-D-lysine coated coverslips in 12 well clusters were washed very briefly in warm PBS followed by rapid fixation in PBS-buffered 4% paraformaldehyde (w/v) for 15 min. […] Coverslips were mounted onto glass slides with 10 μl of 4,6-diamidino-2-phenylindole dihydrochloride (DAPI)-containing Fluoromount G (Southern Biotech, #0100-20) and visualized with a fluorescence microscope. For quantification of α-synuclein and LC3 immunostaining, pixels from equal-time exposed images were quantified using Adobe Photoshop software CS2 (Adobe Systems), and normalized to DAPI.

Data set [4] deals with primary cortical neurons. The experiment in a line: Neurotoxicity assessment (neurofilament immunostaining, neuronal volume) in primary cortical neurons expressing human WT α-synuclein. The format is cell-based.
The next data set deals with Hela cells. Put plainly: Lysosomal proteolysis by radioactive pulse-chase in transfected Hela cells. The format is cell-based. On the procedure:
(§3) Further in this Example, it was assessed whether GCase polypeptide overexpression had the ability to directly enhance lysosomal proteolysis in a non-neuronal cell line. Hela cells were transfected with a myc-tagged GCase polypeptide expression construct and lysosomal proteolysis was assessed by radioactive pulse-chase (FIG. 17A). […] This effect was also confirmed through a different assay, by measuring the effect of GCase polypeptide overexpression on the activity of the lysosomal protease cathepsin B. A cell-permeable fluorescent-tagged cathepsin B substrate (MAGIC RED cathepsin detection kit, Immunochemistry Technologies) was added to transfected Hela cells, and degradation of this substrate was determined in living cells after substrate wash-out.

Another data set deals with total cellular proteins. Put plainly: Total cellular protein solubility by sequential extraction, SDS-PAGE and Coomassie brilliant blue staining. Type of data set: cell-based, mouse. Conditions: leupeptin treatment. Here is the method:
as §1, §2

In the next data set the test system is cathepsin B. The experiment in a line: Cathepsin B activity in living transfected Hela cells (fluorescent substrate). Type of data set: cell-based. The conditions noted are these: overexpression in transfected Hela cells, versus GFP. Here is the method: as §3
In this Example, it was investigated whether enhancement of lysosomal enzyme trafficking through stimulation of the secretory pathway would result in increased lysosomal function and reduction of α-synuclein. Therefore, in this Example the small GTPase Rab1a polypeptide was overexpressed by lentiviral infection in iPS neurons to stimulate enzyme trafficking. […] The effect of Rab1a polypeptide was determined in human iPS dopamine neurons derived from reprogrammed fibroblasts of a PD patient (Coriell line ND27760). […] Further in this Example, it was determined if Rab1a polypeptide enhances lysosomal function by monitoring cathepsin B activity.

Data set [5] deals with α-synuclein. Put plainly: α-synuclein levels by western blot in human midbrain iPS dopamine neurons. Conditions: lentiviral overexpression, moi 5, human PD dopamine neurons (Coriell line ND27760, SNCA triplication). Type of data set: cell-based. From the text: In this Example, it was investigated whether enhancement of lysosomal enzyme trafficking through stimulation of the secretory pathway would result in increased lysosomal function and reduction of α-synuclein. Therefore, in this Example the small GTPase Rab1a polypeptide was overexpressed by lentiviral infection in iPS neurons to stimulate enzyme trafficking. Rab1a polypeptide has been established to function specifically at the ER-Golgi step of the secretory pathway (Duvernay et al., Cell Signal 17: 1457, 2005). The effect of Rab1a polypeptide was determined in human iPS dopamine neurons derived from reprogrammed fibroblasts of a PD patient (Coriell line ND27760). These cells harbor a triplication mutation in the genomic region containing SNCA which encodes for α-synuclein, leading to overexpression of the protein and lysosomal trafficking deficits. […] Further in this Example, it was determined if Rab1a polypeptide enhances lysosomal function by monitoring cathepsin B activity.
It was also shown in this Example that treatment with the GCase polypeptide activator increased the levels of total GCase protein and increased the post-ER forms, indicating enhancement of flux to the lysosome (FIG. 19B).
Most materials for SDS-PAGE were obtained from Invitrogen (NuPAGE system). Protein lysates were boiled in sample buffer (20 mM Tris, 1% (v/v) glycerol, 180 mM β-mercaptoethanol, 0.003% (w/v) bromophenol blue, 2% (w/v) SDS, pH 6.8), resolved on 4%-12% Bis-Tris polyacrylamide precast gels in a MOPS-SDS running buffer, or 4%-12% Tris-Glycine gels. 10% Tris-Glycine gels were utilized for some GCase polypeptide western blot's (FIGS. 13B, 13D, and 13E, and FIGS. 14C and 14F). […] Blots were blocked in Odyssey blocking buffer (Li-Cor biosciences) containing 0.05% Tween, or 5% non-fat dry milk in TBS-T 0.2%, followed by incubation with primary antibodies (see above for dilutions), and detected with anti-mouse or -rabbit IgG conjugated to IRDye 680 or 800 (1:10,000, Li-Cor biosciences). […] Any nonspecific bands detected were not included in densitometric analyses. […]

Where [6] appears, read: leupeptin-treated WT α-synuclein-expressing neurons.

As to `CC(=O)N[C@@H](CC(C)C)C(=O)N[C@@H](CC(C)C)C(=O)N[C@H](C=O)CCCNC(=N)N` [leupeptin], in the data set on α-synuclein [1] (setting [6]), the “T-insoluble α-synuclein” value is listed as “increase” and the “amount of soluble α-synuclein” value is recorded as “no change”. Moreover, the “total α-synuclein immunostaining intensity” value in the data set with α-synuclein [1] (leupeptin-treated compared to control cells) is reported as “increase”. The “soluble HMW α-synuclein by SEC” value in the data set with α-synuclein [1] (leupeptin-treated neurons) was “not detectable”. In addition, the “proteolysis of long-lived proteins in GCase polypeptide shRNA-treated cells” value with primary cortical neurons [2] was “did not additively inhibit”. Moreover, in the data set on LC3-II, the “levels of LC3-II” value is on record as “comparable increase”. The “percentage of cells with condensed nuclei compared to untreated control cells” value in [3] (7 dpi) was “did not alter”. Also, the “percentage of cells containing α-synuclein/LAMP1 colocalized puncta” value in data set [3] (leupeptin-treated cells) is recorded as ~90%. In the data set on primary cortical neurons [4] (>12 dpi), the “neurotoxicity at later time points” value is “did result in neurotoxicity”. Further, the α-synuclein-mediated neurotoxicity entry in the data set on primary cortical neurons [4] (WT α-synuclein-expressing neurons, 50 μM leupeptin, 7 dpi) is “did not enhance”. For the same molecule, in the data set with Hela cells, the “effect of lysosomal inhibitors on the proteolysis increase by GCase polypeptide overexpression” value is “completely reversed”. In addition, the “levels of total insoluble proteins, fold increase” value in the data set with total cellular proteins is given as ~2 fold.
As to “Rab1a polypeptide: small GTPase overexpressed by lentiviral infection or transfection; SEQ ID NO. 13”, in the data set with cathepsin B, the “cathepsin B activity” value was “increase”. Also, the α-synuclein levels result in the data set with α-synuclein [5] is listed as “dramatic reduction”.

B1: GCase polypeptide: myc-tagged GCase polypeptide expression construct transfected into Hela cells (protein, UniProt P04062 40-536, looked up)
Lysosomal acid …: ARPCIPKSFGYSSVVCVCNATYCDSFDPPTFPALGTFSRYESTRSGRRMELSMGPIQANHTGTGLLLTLQPEQKFQKVKGFGGAMTDAAALNILALSPPAQNLLLKSYFSEEGIGYNIIRVPMASCDFSIRTYTYADTPDDFQLHNFSLPEEDTKLKIPLIHRALQLAQRPVSLLASPWTSPTWLKTNGAVNGKGSLKGQPGDIYHQTWARYFVKFLDAYAEHKLQFWAVTAENEPSAGLLSGYPFQCLGFTPEHQRDFIARDLGPTLANSTHHNVRLLMLDDQRLLLPHWAKVVLTDPEAAKYVHGIAVHWYLDFLAPAKATLGETHRLFPNTMLFASEACVGSKFWEQSVRLGSWDRGMQYSHSIITNLLYHVVGWTDWNLALNPEGGPNWVRNFVDSPIIVDITKDTFYKQPMFYHLGHFSKFIPEGSQRVGLVASQKNDLDAVALMHPDGSAVVVVLNRSSKDVPLTIKDPAVGFLETISPGYSIHTYLWRRQ
modifications: myc tag
notes: myc-tagged GCase polypeptide expression construct transfected into Hela cells
B1: in the data set on cathepsin B, the “cathepsin B activity” value is listed as “increased”. Further, the “increase in proteolysis compared to GFP control transfected cells” value in the data set with Hela cells (myc-tagged GCase polypeptide expression construct) turned out to be 40%.
